{"source": "patent US4767764A", "about": "“Alkoxyalkyl and alkylmercaptoalkyl substituted bridged benzofuroisoquinolines having opioid antagonist and/or appetite-controlling properties” (E. I. Du Pont de Nemours and Company, priority 1986, dated 1988)", "key": {"[1]": {"tested_on": "PQ-induced writhing in mice", "assay": "animal or person", "assay_type": "in vivo, mouse (male CF1)", "details": "Mus musculus, sc, read-out: ED50, antagonism of PQ-induced writhing in mice"}, "[2]": {"molecular_target": "T1, mu opioid receptor (morphine analgesia) (Mus musculus, UniProt P42866)", "T1 construct": "Male CF1 mice (fasted 17-21 hours); from tissue; host or cells: live male CF1 mice (in vivo, whole animal; endogenous receptor)", "T1 sequence (P42866 whole entry)": "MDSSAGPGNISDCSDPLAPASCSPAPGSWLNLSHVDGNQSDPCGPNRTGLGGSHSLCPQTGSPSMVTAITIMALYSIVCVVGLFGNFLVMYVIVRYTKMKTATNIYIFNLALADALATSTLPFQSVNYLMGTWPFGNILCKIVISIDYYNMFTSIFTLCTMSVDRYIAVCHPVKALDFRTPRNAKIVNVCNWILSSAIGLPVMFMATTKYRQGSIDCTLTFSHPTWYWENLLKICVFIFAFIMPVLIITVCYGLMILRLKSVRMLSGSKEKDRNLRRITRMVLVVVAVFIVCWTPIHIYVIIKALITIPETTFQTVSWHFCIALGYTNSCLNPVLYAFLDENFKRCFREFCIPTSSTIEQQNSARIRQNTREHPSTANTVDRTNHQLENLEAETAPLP", "assay": "antagonism of morphine analgesia in PQW test (mu antagonist potency)", "assay_type": "in vivo, mouse (male CF1)", "details": "sc, read-out: ED50, antagonism of morphine analgesia in PQW test (mu antagonist potency)"}, "[3]": {"molecular_target": "T2, kappa opioid receptor (U-50,488H analgesia) (Mus musculus, UniProt P33534)", "T2 construct": "Male CF1 mice (fasted 17-21 hours); from tissue; host or cells: live male CF1 mice (in vivo, whole animal; endogenous receptor)", "T2 sequence (P33534 whole entry)": "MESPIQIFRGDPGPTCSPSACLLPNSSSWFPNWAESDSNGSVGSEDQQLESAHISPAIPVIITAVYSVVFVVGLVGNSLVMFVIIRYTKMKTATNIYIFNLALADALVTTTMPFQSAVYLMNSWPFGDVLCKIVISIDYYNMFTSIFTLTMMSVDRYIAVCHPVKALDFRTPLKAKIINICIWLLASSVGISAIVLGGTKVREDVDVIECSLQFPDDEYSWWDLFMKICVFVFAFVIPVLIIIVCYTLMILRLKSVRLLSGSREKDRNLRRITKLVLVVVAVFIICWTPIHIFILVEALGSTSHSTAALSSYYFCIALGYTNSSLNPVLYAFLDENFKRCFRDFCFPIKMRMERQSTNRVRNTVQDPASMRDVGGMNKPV", "assay": "in vivo", "design": "species or system mouse (male CF1)", "details": "sc, read-out: ED50, antagonism of U-50,488H analgesia in PQW test (kappa antagonist potency)"}, "[4]": {"tested_on": "animal models of hemorrhagic, septic, and neurogenic shock", "details": "in vivo; cited from earlier work"}, "spinal cord injury": {"tested_on": "spinal cord injury", "details": "rabbit, versus WIN 44,441-3; cited from earlier work"}, "food intake": {"tested_on": "food intake", "details": "in vivo; cited from earlier work"}, "[5]": {"tested_on": "μ (mu), κ (kappa) and δ (delta) opioid receptors", "details": "established opioid antagonists; cited from earlier work"}, "kappa receptor": {"tested_on": "kappa receptor", "details": "cited from earlier work"}, "feeding": {"tested_on": "feeding", "details": "in vivo; cited from earlier work"}}}
{"smiles": "CCCN1CCC23c4cccc(O)c4OC2C2CCC3(C1)C(COC)C2", "note": "(stereo not drawn) [Example 1, 5-Methoxymethyl-3-n-propyl-1,2,3,4,5,6,7,7a-octahydro-4a,7-ethanobenzofuro[3,2-e]isoquinolin-9-ol]", "values": [{"measurement": "ED50", "setting": "[1]", "value": "> 81", "unit": "mg/kg"}, {"measurement": "ED50", "setting": "[2]", "value": 0.014, "unit": "mg/kg"}, {"measurement": "ED50", "setting": "[3]", "value": 0.004, "unit": "mg/kg"}]}
{"smiles": "CCCN1CCC23c4cccc(O)c4OC2C2CCC3(C1)C(COCC)C2", "note": "(stereo not drawn) [Example 2, 5-Ethoxymethyl-3-n-propyl-1,2,3,4,5,6,7,7a-octahydro-4a,7-ethanobenzofuro[3,2-e]isoquinolin-9-ol]", "values": [{"measurement": "ED50", "setting": "[1]", "value": "> 81", "unit": "mg/kg"}, {"measurement": "ED50", "setting": "[2]", "value": 0.024, "unit": "mg/kg"}, {"measurement": "ED50", "setting": "[3]", "value": 0.012, "unit": "mg/kg"}]}
{"smiles": "CCCOCC1CC2CCC13CN(CCC)CCC31c3cccc(O)c3OC21", "note": "(stereo not drawn) [Example 3, 5-(n-Propoxymethyl)-3-n-propyl-1,2,3,4,5,6,7,7a-octahydro-4a,7-ethanobenzofuro[3,2-e]isoquinolin-9-ol]", "values": [{"measurement": "ED50", "setting": "[1]", "value": "> 81", "unit": "mg/kg"}, {"measurement": "ED50", "setting": "[2]", "value": 0.06, "unit": "mg/kg"}, {"measurement": "ED50", "setting": "[3]", "value": 0.025, "unit": "mg/kg"}]}
{"smiles": "CCCOCC1CC2C=CC13CN(CCC)CCC31c3cccc(O)c3OC21", "note": "(stereo not drawn) [Example 4, 5-(n-propoxymethyl)-3-n-propyl-1,2,3,4,5,6,7,7a-octahydro-4a,7-ethenobenzofuro[3,2-e]isoquinolin-9-ol]", "values": [{"measurement": "ED50", "setting": "[1]", "value": "> 81", "unit": "mg/kg"}, {"measurement": "ED50", "setting": "[2]", "value": 0.19, "unit": "mg/kg"}, {"measurement": "ED50", "setting": "[3]", "value": 0.05, "unit": "mg/kg"}]}
{"smiles": "CCCN1CCC23c4cccc(O)c4OC2C2CCC3(C1)C(CSC)C2", "note": "(stereo not drawn) [Example 5, 5-methylthiomethyl-3-n-propyl-1,2,3,4,5,6,7,7a-octahydro-4a,7-ethanobenzofuro[3,2-e]isoquinolin-9-ol]", "values": [{"measurement": "ED50", "setting": "[1]", "value": "> 81", "unit": "mg/kg"}, {"measurement": "ED50", "setting": "[2]", "value": 0.1, "unit": "mg/kg"}, {"measurement": "ED50", "setting": "[3]", "value": 0.063, "unit": "mg/kg"}]}
{"smiles": "COCC1CC2CCC13CN(CC1CC1)CCC31c3cccc(O)c3OC21", "note": "(stereo not drawn) [Example 6, 3-Cyclopropylmethyl-5-methoxymethyl-1,2,3,4,5,6,7,7a-octahydro-4a,7-ethanobenzofuro[3,2-e]isoquinolin-9-ol]", "values": [{"measurement": "ED50", "setting": "[1]", "value": "> 81", "unit": "mg/kg"}, {"measurement": "ED50", "setting": "[2]", "value": 0.008, "unit": "mg/kg"}, {"measurement": "ED50", "setting": "[3]", "value": 0.007, "unit": "mg/kg"}]}
{"smiles": "Oc1cccc2c1OC1C3CCC4(CN(CC5CC5)CCC214)C(COCCCc1ccccc1)C3", "note": "(stereo not drawn) [Example 7, 3-cyclopropylmethyl-5-(3-phenyl-n-propoxymethyl)-1,2,3,4,5,6,7,7a-octahydro-4a,7-ethanolbenzofuro[3,2-e]isoquinolin-9-ol]", "values": [{"measurement": "ED50", "setting": "[1]", "value": "> 81", "unit": "mg/kg"}, {"measurement": "ED50", "setting": "[2]", "value": 0.29, "unit": "mg/kg"}, {"measurement": "ED50", "setting": "[3]", "value": 0.24, "unit": "mg/kg"}]}
{"smiles": "CCC1C2Cc3ccc(O)cc3C1(CC)CCN2Cc1ccoc1", "note": "(stereo not drawn) [MR 2266, reference compound]", "values": [{"measurement": "ED50", "setting": "[1]", "value": "> 81", "unit": "mg/kg"}, {"measurement": "ED50", "setting": "[2]", "value": 0.109, "unit": "mg/kg"}, {"measurement": "ED50", "setting": "[3]", "value": 0.115, "unit": "mg/kg"}]}
{"smiles": "C=CCN1CC[C@]23c4c5ccc(O)c4O[C@H]2C(=O)CC[C@@]3(O)[C@H]1C5", "note": "[Naloxone, naloxone]", "values": [{"measurement": "ED50", "setting": "[1]", "value": "> 81", "unit": "mg/kg"}, {"measurement": "effective doses in shock models versus mu mediated effects", "setting": "[4]", "value": "several orders of magnitude higher than doses useful in reversing mu mediated effects"}, {"measurement": "improvement of hemodynamic parameters in shock models", "setting": "[4]", "value": "improve hemodynamic parameters in a variety of animal models of hemorrhagic, septic, and neurogenic shock"}, {"measurement": "effectiveness in spinal stroke model", "setting": "spinal cord injury", "value": "less effective than WIN 44,441-3"}, {"measurement": "decrease of food intake", "setting": "food intake", "value": "decrease food intake in several animal species"}, {"measurement": "effective doses for food intake versus mu mediated effects", "setting": "food intake", "value": "much larger than those useful in reversing mu mediated effects"}]}
{"smiles": "O=C1CC[C@@]2(O)[C@H]3Cc4ccc(O)c5c4[C@@]2(CCN3CC2CC2)[C@H]1O5", "note": "[Naltrexone, naltrexone]", "values": [{"measurement": "ED50", "setting": "[1]", "value": "> 81", "unit": "mg/kg"}, {"measurement": "opioid receptor binding in words", "setting": "[5]", "value": "bind to all three types of receptors, with greatest affinity for the mu receptor"}, {"measurement": "decrease of food intake", "setting": "food intake", "value": "decrease food intake in several animal species"}, {"measurement": "effective doses for food intake versus mu mediated effects", "setting": "food intake", "value": "much larger than those useful in reversing mu mediated effects"}]}
{"smiles": "CN1CC[C@]2(C)c3cc(O)ccc3C[C@H]1C2(C)CCC(=O)CCC1CCCC1.CS(=O)(=O)O", "note": "(stereo partly drawn) [WIN 44,441-3]", "values": [{"measurement": "kappa receptor activity/selectivity in words", "setting": "kappa receptor", "value": "enhanced activity at the kappa receptor"}]}
{"smiles": "CC[C@]12CCN(CC3CC3)[C@H](C(=O)c3ccc(O)cc31)[C@@H]2C", "note": "[ethylketocyclazocine]", "values": [{"measurement": "stimulation of feeding", "setting": "feeding", "value": "more potent stimulators of feeding than the mu agonist morphine"}]}
